These results are taken from US20190010158A1, “ANTITUMOR EFFECT POTENTIATOR COMPRISING PYRROLOPYRIMIDINE COMPOUND” (TAIHO PHARMACEUTICAL CO., LTD, priority 2015, published 2019).

The test system of test [1] is tumor cell lines shown in Table 44. Nature of the test: Example 12: combined use with platinum-based antitumor agent, cell growth inhibition test (IC50 ratio, CI). The following applies: for IC50 Ratio: IC50 of Reference Example Compound 55 : IC50 of other compound = 1:value; for CI: at ED50; for Comprehensive Evaluation: combined use with Reference Example Compound 55.

For another test, the system named is U266B1. Nature of the test: Example 1: combined use with proteasome inhibitor, cell growth inhibition test (IC50 ratio, CI), U266B1. It is filed as cell-based, human. The following applies: for CI: at ED50.
The test system of test [2] is tumor cell lines shown in Table 48. Kind of test: Example 14: combined use with alkylating agent, cell growth inhibition test (IC50 ratio, CI). The format is cell-based. The following applies: for IC50 Ratio: IC50 of Reference Example Compound 55 : IC50 of other compound = 1:value; for CI: at ED50; for Comprehensive Evaluation: combined use with Reference Example Compound 55.

Test [3] has as its system tumor cell lines shown in Table 30. Kind of test: Example 5: combined use with steroid, cell growth inhibition test (IC50 ratio, CI). The conditions noted are these: MM.1S; for IC50 Ratio: IC50 of Reference Example Compound 55 : IC50 of other compound = 1:value; for CI: at ED50; for Comprehensive Evaluation: combined use with Reference Example Compound 55.
The test system of test [4] is tumor cell lines shown in Table 50. Kind of test: Example 15: combined use with anthracycline-based antitumor agent, cell growth inhibition test (IC50 ratio, CI). The conditions noted are these: for IC50 Ratio: IC50 of Reference Example Compound 55 : IC50 of other compound = 1:value; for CI: at ED50; for Comprehensive Evaluation: combined use with Reference Example Compound 55.

Test [5] deals with tumor cell lines shown in Table 46. Nature of the test: Example 13: combined use with microtubule inhibitor, cell growth inhibition test (IC50 ratio, CI). It is filed as cell-based. The conditions noted are these: A549; for IC50 Ratio: IC50 of Reference Example Compound 55 : IC50 of other compound = 1:value; for CI: at ED50; for Comprehensive Evaluation: combined use with Reference Example Compound 55.

Test [6] has as its system tumor cell lines shown in Table 32. Kind of test: Example 6: combined use with immunomodulator, cell growth inhibition test (IC50 ratio, CI). The format is cell-based. The following applies: MM.1S; for IC50 Ratio: IC50 of Reference Example Compound 55 : IC50 of other compound = 1:value; for CI: at ED50; for Comprehensive Evaluation: combined use with Reference Example Compound 55.

In test [7] the target is T1, NAE (heterodimer of APPBP1 and UBA3) (Homo sapiens, UniProt Q8TBC4).
T1 construct: amino acids 1 to 463 of human UBA3 protein; made in house; host or cells: Sf9 insect cells (baculovirus co-infection) for NAE; E. coli BL21 (DE3) for GST-UBC12
T1 sequence (Q8TBC4 1-463): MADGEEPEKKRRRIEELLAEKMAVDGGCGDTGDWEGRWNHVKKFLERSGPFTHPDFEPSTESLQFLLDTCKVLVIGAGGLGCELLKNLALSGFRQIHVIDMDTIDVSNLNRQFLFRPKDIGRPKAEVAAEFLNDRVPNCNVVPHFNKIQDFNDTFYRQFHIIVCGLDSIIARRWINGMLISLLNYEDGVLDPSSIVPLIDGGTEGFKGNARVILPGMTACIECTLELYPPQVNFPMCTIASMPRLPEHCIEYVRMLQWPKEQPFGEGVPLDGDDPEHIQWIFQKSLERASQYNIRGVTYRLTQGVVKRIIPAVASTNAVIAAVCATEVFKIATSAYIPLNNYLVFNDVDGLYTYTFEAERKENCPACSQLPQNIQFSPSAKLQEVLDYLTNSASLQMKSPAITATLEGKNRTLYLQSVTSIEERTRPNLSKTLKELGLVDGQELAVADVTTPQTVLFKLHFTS
T1 sequence (Q13564 1-534 partner): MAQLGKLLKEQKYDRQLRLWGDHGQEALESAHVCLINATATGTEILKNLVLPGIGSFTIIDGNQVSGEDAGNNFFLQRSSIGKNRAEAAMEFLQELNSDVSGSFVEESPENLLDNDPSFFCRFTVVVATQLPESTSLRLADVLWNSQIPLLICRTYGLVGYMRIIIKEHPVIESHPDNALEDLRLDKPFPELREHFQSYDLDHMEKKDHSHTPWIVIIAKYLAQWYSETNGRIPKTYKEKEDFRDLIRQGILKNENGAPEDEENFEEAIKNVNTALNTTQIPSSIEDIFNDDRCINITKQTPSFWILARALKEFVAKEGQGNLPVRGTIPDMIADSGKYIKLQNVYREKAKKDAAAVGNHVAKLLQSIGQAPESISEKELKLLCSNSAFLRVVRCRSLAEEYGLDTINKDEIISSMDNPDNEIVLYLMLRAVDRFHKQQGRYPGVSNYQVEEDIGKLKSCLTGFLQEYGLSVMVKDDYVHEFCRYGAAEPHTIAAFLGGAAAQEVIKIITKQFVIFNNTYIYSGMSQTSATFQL
Kind of test: Nedd8 conjugation inhibitory activity (AlphaScreen). It is filed as biochemical. The following applies: purified NAE, GST-UBC12, ATP, Biotin-Nedd8, reaction 90 minutes.

The test system of test [8] is human acute T lymphoblastic leukemia CCRF-CEM cell lines. Kind of test: Cell growth inhibition 1 (CellTiter-Glo). The format is cell-based. The following applies: culture with test compound 72 hours.
Setting [9] is: MV4-11, Reference Example Compound 55:other compound 1:3000.
[10] abbreviates: MV4-11, Reference Example Compound 55:other compound 1:9000.
[11] abbreviates: Reference Example Compound 55:other compound 1:1.
The mark [12] stands for this setting: Reference Example Compound 55:other compound 1:10.

`N.N.O=C([O-])C1(C(=O)[O-])CCC1.[Pt+2]` [Carboplatin, carboplatin]: in test [1] (A549), the “IC50 Ratio” value amounted to 38 and the “Comprehensive Evaluation” value is recorded as “Slight”. For the same compound, in test [1] (A549, Reference Example Compound 55:other compound 1:17), the CI was found to be 0.41. Moreover, the CI in [1] (A549, Reference Example Compound 55:other compound 1:50) came out at 0.87.

In the case of `CC(C)C[C@H](NC(=O)[C@H](CCc1ccccc1)NC(=O)CN1CCOCC1)C(=O)N[C@@H](Cc1ccccc1)C(=O)N[C@@H](CC(C)C)C(=O)[C@@]1(C)CO1` [Carfilzomib, carfilzomib], the “IC50 Ratio” value in the test with U266B1 (IC50 of Reference Example Compound 55 : IC50 of other compound = 1:value) stood at 0.30. Also, the CI turned out to be 0.64 in the test with U266B1 (Reference Example Compound 55:other compound 1:015) and 0.66 in the test on U266B1 (Reference Example Compound 55:other compound 1:045). Moreover, the “Comprehensive Evaluation” value in the test on U266B1 (combined use with Reference Example Compound 55) was “Synergism (0.3-0.7)”.

As to `N.N.[Cl][Pt][Cl]` [Cisplatin, cisplatin], in test [1] (HCT116), the “IC50 Ratio” value amounted to 343 and the “Comprehensive Evaluation” value was “Moderate”. Further, the CI in test [1] (HCT116, Reference Example Compound 55:other compound 1:333) was found to be 0.44. The CI in [1] (HCT116, Reference Example Compound 55:other compound 1:1000) is on record as 0.72.

For the compound `CN(C)/N=N/c1[nH]cnc1C(N)=O` [Dacarbazine, dacarbazine], the “IC50 Ratio” value in test [2] (MV4-11) was 6582. For the same compound, the values for the CI in [2] (setting [9]) and in test [2] (setting [10]) were 0.92 and 0.95, respectively. For the same compound, the “Comprehensive Evaluation” value in test [2] (MV4-11) is reported as “Additive (0.9-1.10)”.

For `C[C@@H]1C[C@H]2[C@@H]3CCC4=CC(=O)C=C[C@]4(C)[C@@]3(F)[C@@H](O)C[C@]2(C)[C@@]1(O)C(=O)CO` [Dexamethasone, dexamethasone], in [3], the “IC50 Ratio” value stood at 0.4 and the “Comprehensive Evaluation” value was “Synergism (0.3-0.7)”. For the same compound, in [3] (Reference Example Compound 55:other compound 1:0.3), the CI amounted to 0.51. The CI in test [3] (setting [11]) is 0.39.

`COc1cccc2c1C(=O)c1c(O)c3c(c(O)c1C2=O)C[C@@](O)(C(=O)CO)C[C@@H]3O[C@H]1C[C@H](N)[C@H](O)[C@H](C)O1` [Doxorubicin, doxorubicin]: in test [4] (HOS), the “IC50 Ratio” value amounted to 2 and the “Comprehensive Evaluation” value is listed as “Moderate”. Also, in test [4] (HOS, Reference Example Compound 55:other compound 1:1.7), the CI is given as 0.77. For the same compound, in test [4] (HOS, Reference Example Compound 55:other compound 1:5), the CI was found to be 0.61.

Take `C=C1C[C@@H]2CC[C@@]34C[C@H]5O[C@H]6[C@@H](O3)[C@H]3O[C@H](CC[C@@H]3O[C@H]6[C@H]5O4)CC(=O)C[C@@H]3[C@@H](OC)[C@@H](C[C@H](O)CN)O[C@H]3C[C@H]3O[C@@H](CC[C@@H]1O2)C[C@@H](C)C3=C` [Eribulin, eribulin]: in test [5], the “IC50 Ratio” value was found to be 0.01 and the “Comprehensive Evaluation” value is recorded as “Additive (0.9-1.10)”. Moreover, the CI in [5] (Reference Example Compound 55:other compound 1:0.01) was 1.02. In addition, the CI in test [5] (Reference Example Compound 55:other compound 1:0.03) was 0.89.

In the case of `O=P1(NCCCl)OCCCN1CCCl` (centres unmarked) [Ifosfamide, ifosfamide], the “IC50 Ratio” value in test [2] (MV4-11) stood at 6315. Moreover, the CI in [2] (setting [9]) turned out to be 0.57; in [2] (setting [10]) it was 0.60. Besides, the “Comprehensive Evaluation” value in test [2] (MV4-11) is reported as “Synergism (0.3-0.7)”.

Consider `Nc1cccc2c1CN(C1CCC(=O)NC1=O)C2=O` (centres unmarked) [Lenalidomide, lenalidomide], for which, in [6], the “IC50 Ratio” value is recorded as 14 and the “Comprehensive Evaluation” value is listed as “Moderate”. The CI in test [6] (setting [12]) is 0.75. The CI in test [6] (Reference Example Compound 55:other compound 1:30) is reported as 0.69.

In the case of `O=C1[O][Pt]2([NH][C@@H]3CCCC[C@H]3[NH]2)[O]C1=O` [Oxaliplatin, oxaliplatin], in test [1] (HL-60), the “IC50 Ratio” value was 132 and the “Comprehensive Evaluation” value was “Synergism (0.3-0.7)”. Moreover, the CI in test [1] (HL-60, Reference Example Compound 55:other compound 1:100) was 0.65. Also, the CI in test [1] (HL-60, Reference Example Compound 55:other compound 1:300) is 0.70.

With `CC(=O)O[C@H]1C(=O)[C@@]2(C)[C@H]([C@H](OC(=O)c3ccccc3)[C@]3(O)C[C@H](OC(=O)[C@H](O)[C@@H](NC(=O)c4ccccc4)c4ccccc4)C(C)=C1C3(C)C)[C@]1(OC(C)=O)CO[C@@H]1C[C@@H]2O` [Paclitaxel, paclitaxel], the “IC50 Ratio” value in [5] is listed as 0.04. Besides, the CI in [5] (Reference Example Compound 55:other compound 1:0.02) is listed as 0.98; in test [5] (Reference Example Compound 55:other compound 1:0.06), 0.77. In addition, the “Comprehensive Evaluation” value in [5] is listed as “Additive (0.9-1.10)”.

Consider `NCCNc1ccc(NCCN)c2c1C(=O)c1ccncc1C2=O` [Pixantrone, pixantrone], for which the “IC50 Ratio” value in [4] (MM.1S) was determined as 8.4. Also, the CI in test [4] (MM.1S, Reference Example Compound 55:other compound 1:3.7) came to 0.73; in test [4] (MM.1S, Reference Example Compound 55:other compound 1:11), 0.84. The “Comprehensive Evaluation” value in test [4] (MM.1S) is recorded as “Moderate”.

Take `Nc1cccc2c1C(=O)N(C1CCC(=O)NC1=O)C2=O` (centres unmarked) [Poma1idomide, pomalidomide]: in [6], the “IC50 Ratio” value is on record as 3 and the “Comprehensive Evaluation” value is “Moderate”. Further, the CI in [6] (setting [11]) is reported as 0.81. For the same compound, in test [6] (Reference Example Compound 55:other compound 1:3), the CI came to 0.66.

Take `C[C@]12C=CC(=O)C=C1CC[C@@H]1[C@@H]2[C@@H](O)C[C@@]2(C)[C@H]1CC[C@]2(O)C(=O)CO` [Prednisolone, prednisolone]: in [3], the “IC50 Ratio” value is 8.3 and the “Comprehensive Evaluation” value is reported as “Synergism (0.3-0.7)”. The CI in [3] (Reference Example Compound 55:other compound 1:3.3) is 0.54. Further, in test [3] (setting [12]), the CI came out at 0.44.

For the compound `Nc1ncnc2c1c(C#Cc1c(F)cccc1F)cn2[C@@H]1O[C@H](COS(N)(=O)=O)[C@@H](O)[C@H]1O` [Reference Example 132, [(2R,3S,4R,5R)-5-[4-Amino-5-[2-(2,6-difluorophenyl)ethynyl]pyrrolo[2,3-d]pyrimidin-7-yl]-3,4-dihydroxy-tetrahydrofuran-2-yl]methyl sulfamate], the figures for the IC50 in test [7] and in test [8] were at most 0.003 µM and 1.8 nM, respectively.

Take `O=C1CCC(N2C(=O)c3ccccc3C2=O)C(=O)N1` (centres unmarked) [Thalidomide, thalidomide]: in test [6], the “IC50 Ratio” value came to 6603 and the “Comprehensive Evaluation” value is listed as “Synergism (0.3-0.7)”. In test [6] (Reference Example Compound 55:other compound 1:900 (only ratio calculated)), the CI is 0.63.

As to `COc1cc2c(cc1O)CCN[C@]21CS[C@@H]2c3c(OC(C)=O)c(C)c4c(c3[C@H](COC1=O)N1[C@@H]2[C@H]2c3c(cc(C)c(OC)c3O)C[C@@H]([C@@H]1O)N2C)OCO4` [Trabectedin, trabectedin], in [2] (HOS), the “IC50 Ratio” value is listed as 0.2 and the “Comprehensive Evaluation” value is given as “Additive (0.9-1.10)”. Further, in test [2] (HOS, Reference Example Compound 55:other compound 1:0.1), the CI stood at 0.83. In test [2] (HOS, Reference Example Compound 55:other compound 1:0.3), the CI is 1.01.
